The results in this text go back to US20050256034A1, “Dioxolane analogs for improved inter-cellular delivery” (priority 2000, published 2005).

What all share (type): cell-based
One assay relates to CEM/dCK-. In words: MMT or WST-1 assay at 72 hr. The following applies: for Resistance Factor: CEM/dCK- versus CCRF-CEM.
Assay [1] is described as follows: 3H-Thymidine Incorporation Assay (24 hr drug, wash, another 48 hr; 72 hr assay). The following applies: for IC50: 24 hr exposure to drug, wash, another 48 hr. (Incorporation of labelled thymidine or its analogues reports DNA synthesis.)
The test system of a further assay is SF-268. In words: MTT assay at 72 hr. The following applies: Homo sapiens, SF-268, read-out: IC50 (MTT at 72 hr) SF-268, 24 h exposure, single experiments. On the technique in general: Tetrazolium assays rely on reduction of a dye to a coloured formazan, in cell work by metabolically active cells.
Another assay deals with CCRF-CEM. Description: MMT or WST-1 assay at 72 hr. As to conditions: Homo sapiens, read-out: IC50 (MMT or WST-1 at 72 hr) CCRF-CEM, 24 h exposure, single experiments.
The next assay has as its system H-460. Description: MTT assay at 72 hr. The following applies: Homo sapiens, NCI-H460, read-out: IC50 (MTT at 72 hr) H-460, 24 h exposure, single experiments.
The test system of the next assay is MCF-7. In words: MTT assay at 72 hr. The following applies: Homo sapiens, MCF7, read-out: IC50 (MTT at 72 hr) MCF-7, 24 h exposure, single experiments.
The subject of another assay is CEM cells. Description: CellTiter 96 cell proliferation assay, 48 h exposure. As to conditions: for effect of es transport inhibitor NBMPR on resistance of CEM cells: presence of NBMPR. As for the experimental part:
The chemosensitivity of suspension cells lines (e.g., CEM or CEM-derivatives) is assessed using the CellTiter 96 ? proliferation assay. […] Chemosensitivity is expressed as 50% (ECso) of the dose response curve determined, e.g., using GraphPad Prism 2.01 (GraphPad Software, San Diego, Calif.). Adherent cell lines (e.g., DU145 or DU145^R) are seeded (˜10^5 cells) in triplicate dishes, 24 h before drug exposure. Growth inhibition is determined by trypsinization and counting cells electronically.

The mark [2] stands for this setting: CCRF-CEM, read-out: IC50 (3H-TdR incorporation at 72 hr) CCRF-CEM 24 h, CCRF-CEM T-cell leukemia.
The mark [3] stands for this setting: CCRF-CEM, read-out: IC50 (3H-TdR incorporation at 72 hr) CEM/dCK- 24 h, CEM/dCK- (CCRF-CEM deoxycytidine kinase-deficient).
[4] abbreviates: NCI-H460, read-out: IC50 (3H-TdR incorporation at 72 hr) H-460 24 h, H-460 human lung carcinoma.

SMILES strings stand for the structures. Where “and” joins values, the source holds several entries; their conditions need not be identical. Identical values can stand only once. Like-named read-outs stand apart in the source and are kept apart here.

For the compound `CCCCC(C)(C)C(=O)OC[C@H]1OC[C@@H](n2ccc(N)nc2=O)O1.Cl` [Compound 107, 2,2-DIMETHYLHEXANOIC ACID 4-(4-AMINO-2-OXO-2H-PYRI- MIDIN-1-YL)-1,3-DI- OXOLAN-2-YLMETHYL ESTER HYDROCHLORIDE], the “Resistance Factor” value in the assay on CEM/dCK- is given as 2,042.
Regarding `Nc1ccn([C@@H]2CO[C@H](COC(=O)C34CCC[C@@H]5C[C@@H]3C[C@H]5C4)O2)c(=O)n1` [Compound 232, HEXAHYDRO-2,5-METHANO-PENTA- LENE-3A-CARBOXYLIC ACID 4-(4-AMINO-2-OXO-2H-PYRIMI- DIN-1-YL)-[1,3]DI- OXOLAN-2-YL METHYL ESTER], the IC50 in assay [1] (setting [2]) is 3.7 nM; in assay [1] (setting [3]), 5800 nM; in assay [1] (setting [4]) it was 0.53 nM; in assay [1] (read-out: IC50 (3H-TdR incorporation at 72 hr) CCRF-CEM 24 h, CCRF-CEM T-cell leukemia), 1.9 nM; in assay [1] (read-out: IC50 (3H-TdR incorporation at 72 hr) CEM/dCK- 24 h, CEM/dCK- (CCRF-CEM deoxycytidine kinase-deficient)), 4500 nM; in assay [1] (read-out: IC50 (3H-TdR incorporation at 72 hr) H-460 24 h, H-460 human lung carcinoma), 0.38 nM. Further, the IC50 in the assay with SF-268 worked out at 160 nM; with CCRF-CEM it was 10 nM; in the assay with H-460 it was 6.9 nM; in the assay on CEM/dCK- (read-out: IC50 (MMT or WST-1 at 72 hr) CEM/dCK-, 24 h exposure, single experiments), 2100 nM; in the assay with MCF-7, 20 nM. In addition, in the assay on CEM/dCK-, the “Resistance Factor” value stood at 210.
For `Cc1ccc(C)c(OCCCC(C)(C)C(=O)OC[C@H]2OC[C@@H](n3ccc(N)nc3=O)O2)c1` [Compound 237], the IC50 in assay [1] (setting [2]) is 1.6 nM; in assay [1] (setting [3]), 18000 nM; in assay [1] (MCF7, read-out: IC50 (3H-TdR incorporation at 72 hr) MCF-7 24 h, MCF-7 human breast carcinoma), at most 0.1 nM; in assay [1] (setting [4]) it was 2.6 nM; in assay [1] (SF-268, read-out: IC50 (3H-TdR incorporation at 72 hr) SF-268 24 h, SF-268 human central nervous system tumor) it was 88 nM; with SF-268 it was 3300 nM. In addition, in assay [1] (ratio of IC50 CEM/dCK- to IC50 CCRF-CEM), the “Resistance Factor = Ratio of dCK- on Wild-type CCRF-CEM” value is given as 11,250.
As for `CC(C)C[C@H](N)C(=O)Nc1ccn([C@@H]2CO[C@H](CO)O2)c(=O)n1` [Compound 257, 2-AMINO-4-METHYL-PENTANOIC ACID[1-(2-HYDROXY- METHYL-[1,3]DIOXO- LAN-4-yl)-2-OXO-1,2-DIHYDRO-PYRI- MIDIN-4-YL]-AMIDE], the “Resistance Factor” value with CEM/dCK- is reported as above 19.
Still for that read-out and setting: the result for `CC(C)C[C@H](NC(=O)[C@H](C)NC(=O)OC(C)(C)C)C(=O)Nc1ccn([C@@H]2CO[C@H](CO)O2)c(=O)n1` [Compound 263, (1-{1-[1-(2-HYDROXY- METHYL-[1,3]DIOXO- LAN-4-YL)-2-OXO-1,2-DI- HYDRO-PYRIMIDIN-4-YLCARBA- MOYL]-3-METHYL-BUTYL- CARBAMOYL}-ETHYL)-CARBAMIC ACID TERT-BUTYL ESTER] reads >5 and >7.
On to `CC(C)[C@H](N)C(=O)Nc1ccn([C@@H]2CO[C@H](CO)O2)c(=O)n1.O=C(O)C(F)(F)F` [Compound 280, 2-Amino-N-[1-(2-hydroxy-methyl-[1,3]dioxo-lan-4-yl)-2-oxo-1,2-di-hydro-pyrimidin-4-yl]-3-meth-yl-butyramide; trifluoroacetic acid salt], for which the “Factor (Resistance Factor = Ratio of dCK- on Wild-type CCRF-CEM)” value in assay [1] (ratio of IC50 CEM/dCK- to IC50 CCRF-CEM, 24 h exposure) is above 53.
`Nc1ccn([C@@H]2O[C@H](CO)[C@@H](O)[C@@H]2O)c(=O)n1` [Cytarabine, cytarabine]: the “effect of es transport inhibitor NBMPR on resistance of CEM cells” value in the assay with CEM cells was “significantly increased resistance”.
As for `Nc1ccn([C@@H]2O[C@H](CO)[C@@H](O)C2(F)F)c(=O)n1` [Gemcitabine, gemcitabine], the EC50 with CEM cells (Homo sapiens, CCRF-CEM, 48 h, read-out: Chemosensitivity, 50% of the dose response curve (EC50), CEM + NBMPR (100 nM), 48 h exposure, mean ± SD) is 70 ± 18 nM. Moreover, the “effect of es transport inhibitor NBMPR on resistance of CEM cells” value in the assay with CEM cells is reported as “significantly increased resistance”.

What is called EC50 is the midpoint of the concentration-response curve.
